What all share (format): functional, organism-based
Experiment [1] relates to Microcystis aeruginosa. The experiment in a line: Antialgal activity against Microcystis aeruginosa NIES 44 after 24 hrs by fluorophotometric method.
Experiment [2] relates to Dolichospermum flos-aquae. In words: Antialgal activity against Anabaena flos-aquae NIES 73 after 48 hrs by fluorophotometric method.
The subject of experiment [3] is Microcystis aeruginosa. In words: Antialgal activity against Microcystis aeruginosa NIES 44 up to 500 uM after 24 hrs by fluorophotometric method.

Active and inactive are the calls of the source. No cut-off for these calls is given here.

Our source for the IC50 and Activity values is ChEMBL document CHEMBL1147318, “Inhibitory Substances from Myriophyllum brasiliense on Growth of Blue-Green Algae” (J Nat Prod, 1989).

By IC50 is commonly meant the concentration needed to halve the response being measured. A high value points to weaker potency.

In the case of `O=C(O[C@@H]1[C@@H](OC(=O)c2cc(O)c(O)c(O)c2)[C@H](O)O[C@@H]2COC(=O)c3cc(O)c(O)c(O)c3-c3c(cc(O)c(O)c3O)C(=O)O[C@@H]12)c1cc(O)c(O)c(O)c1`, the 50% inhibitory concentration (IC50) in the experiment on Microcystis aeruginosa [1] was found to be 3.7 µM; in experiment [2] it was 9.5 µM. On to `OC[C@H]1OC(O)[C@H](O)[C@@H](O)[C@@H]1O` (stereo partly drawn), for which the result in the experiment on Microcystis aeruginosa [3] was inactive. For `O=c1c(O[C@@H]2O[C@@H](CO)[C@H](O)[C@H]2O)c(-c2ccc(O)c(O)c2)oc2cc(O)cc(O)c12` [AVICULARIN], the IC50 in the experiment on Microcystis aeruginosa [1] stood at 180 µM; in experiment [2] it was 28 µM.

As for `O=C(O[C@@H]1O[C@@H]2COC(=O)c3cc(O)c(O)c(O)c3-c3c(cc(O)c(O)c3O)C(=O)O[C@H]2[C@H](OC(=O)c2cc(O)c(O)c(O)c2)[C@H]1OC(=O)c1cc(O)c(O)c(O)c1)c1cc(O)c(O)c(O)c1` [EUGENIIN], the IC50 with Microcystis aeruginosa [1] was 1.6 µM; in experiment [2], 2.8 µM.

For `O=C(O)c1cc(O)c(O)c(O)c1` [GALLIC ACID], the IC50 amounted to 19 µM with Microcystis aeruginosa [1] and 33 µM in experiment [2]. On to `O=c1c(O)c(-c2ccc(O)c(O)c2)oc2cc(O)cc(O)c12` [QUERCETIN], for which the IC50 in the experiment with Microcystis aeruginosa [1] was 12 µM; in experiment [2], 25 µM.

For the compound `C[C@@H]1O[C@@H](Oc2c(-c3ccc(O)c(O)c3)oc3cc(O)cc(O)c3c2=O)[C@H](O)[C@H](O)[C@H]1O` [QUERCITRIN], the IC50 with Microcystis aeruginosa [1] amounted to 9 µM; in experiment [2], 45 µM.
